Patent US20240180895A1, “USE OF KAPPA OPIOID RECEPTOR AGONISTS TO TREAT CARDIOVASCULAR DISEASE” (Board of Supervisors of Louisiana State University and …, priority 2021, published 2024)

Experiments:
Type in all cases: in vivo, rat
[1] = tested on: conscious Sprague-Dawley rats; assay: Metabolic cage renal excretory studies, oral gavage (Example 3); details: oral gavage, mean±SEM
Procedure: (§1) Animals: Male Sprague-Dawley (SD) rats (Envigo Labs, Indianapolis, IN), 300-350 g, were individually housed under a 12 h light-dark cycle and allowed tap water and standard rodent diet ad libitum. Rats were randomly assigned to experimental groups for all acute and subacute studies. All procedures were approved by the Louisiana State University Health Sciences Center Institutional Animal Care and Use Committee and conducted in accordance with the National Institutes of Health guidelines for the care and use of animals.
Metabolic Cage Renal Excretory Studies: Rats were placed in metabolic cages (model 18cv, Fenco, Cataumet, MA) for 2 hours to allow for acclimation and voiding of residual urine. Following the acclimation period, rats were volume loaded with 20 cc kg^−1 drug or vehicle (isotonic saline) via oral gavage. Urines were collected each hour over a 5-hour period. Following completion of the study rats were returned to their home cages. […] These points are marked on the figures with number of measurements in parentheses.
(§2) Experimental Design and Analysis: All results are expressed as mean±SEM. […] Means between groups for total urine output, Na^+ concentration, K^+ concentration, and urine osmolality were compared using a Student's t-test. Statistical significance was characterized as P<0.05. Statistics were carried out using Prism 7.05 software (GraphPad Software, Inc., San Diego, CA) and IBM SPSS Statistics (IBM, Armonk, NY).

[2] = tested on: Sprague-Dawley rats; assay: Prevention of diuretic resistance to once daily furosemide by difelikefalin, 24-hour urine (FIG. 14)
Procedure: (§3) Male Sprague-Dawley rats were placed in individual metabolic cages in a room with 12-hour automatic light on/off control and allowed tap water and rodent chow ad libitum. Over the next two (2) days (control period), rats were administered vehicle (5% NaOH; 1 M PBS, IP) in the morning (9:00 am) and urine was then collected for 24-hours.

[3] = tested on: Sprague-Dawley rats; assay: Reversal of oral furosemide diuretic resistance by oral nalfurafine (FIG. 17)
Procedure: (§4) Male Sprague-Dawley rats were placed in individual metabolic cages in a room with 12-hour automatic light on/off control and allowed tap water and rodent chow ad libitum. Over the next two (2) days (control period), rats were administered vehicle (5% NaOH; 1 M PBS) orally (gavage) in the morning (9:00 am) and afternoon (2:00 pm) and urine was collected for 5-hours after the first oral treatment. […] This was repeated for 8 consecutive days (experimental period).

[4] = tested on: Sprague-Dawley rats placed on a low-salt diet; assay: Reversal of furosemide diuretic resistance by difelikefalin in rats on a low sodium diet (FIG. 16); details: low sodium diet
Procedure: as §3, with “water. For these studies, rats were placed on a low-salt diet (0.1% NaCl) for one week prior to” for “water”, “throughout” for “rodent chow ad libitum. Over”, “experimental protocol. […] For the first” for “next”, “5-hours.” for “24-hours.”

[5] = tested on: Sprague-Dawley rats; assay: Prevention of diuretic resistance to twice daily furosemide by nalfurafine, 5-hour urine (FIG. 15)
Procedure: as §4, with “M PBS, IP)” for “M PBS) orally (gavage)”, “pm) of each day, with” for “pm) and”, “urine” for “urine was”, “5-hours starting immediately” for “5-hours”, “first injection.” for “first oral treatment.”, “for 4” for “for 8”

[6] = tested on: conscious Sprague-Dawley rats; assay: Acute cardiovascular and renal excretory studies, i.v. bolus (Example 3)
Procedure: as §1
Surgical Procedures: Aseptic technique was followed for all surgical procedures. On the morning of the experiment, rats were anesthetized with and maintained under inhaled 2% isoflurane, and polyethylene catheters (PE50; BD Diagnostics, Sparks, MD) were surgically inserted into the left femoral vein and left femoral artery for the infusion of saline and/or drug administration and the recording of arterial blood pressure, respectively. Subsequently, a suprapubic incision was made and a flanged polyethylene catheter (PE240; BD Diagnostics, Sparks, MD) was inserted into the bladder, exteriorized, and sutured to surrounding muscle and skin. Rats were then placed in an elevated restrainer (Krowicki & Kapusta, 2011) to recover from surgery and allow collection of urine. When acute experimental protocols were completed, rats were anesthetized via isoflurane and decapitated.
Acute Cardiovascular and Renal Excretory Studies: Following surgery, rats received an i.v. infusion of isotonic saline at 55 μL min^−1 throughout the duration of the experiment and were allowed 4-6 hours to recover from anesthesia. Arterial catheters were connected to a pressure transducer (MLT0670, ADInstruments, Sydney, Australia), which was connected to Powerlab 8/30 (ADInstruments) for recording of pulsatile and mean arterial blood pressure (MAP) and heart rate (HR). Blood pressure and HR were visualized using LabChart software (v8.1.5; ADInstruments). […] Following this control period, drug or vehicle (isotonic saline) was injected into the femoral vein catheter at a volume of 2 cc kg^−1, and urines were collected in 10 minute periods for a span of 90 minutes. […] All groups are n=6. Urine volume was measured gravimetrically, urine sodium and potassium concentrations were measured using flame photometry (model 943; Instrumentation Laboratories, Lexington, MA), and urine osmolality was measured using a vapor pressure osmometer (model 5600; WESCOR, Logan, UT).
as §2

[7] = cumulative 5-hour urine, same doses
[8] = i.v. bolus, cumulative 90-min urine, same doses, mean±SEM

Structure (SMILES): NS(=O)(=O)c1cc(C(=O)O)c(NCc2ccco2)cc1Cl [furosemide]
- Potassium concentration [K+] in cumulative urine [1, 7]: 23.94±1.02 μeq ml^−1
- Sodium concentration [Na+] in cumulative urine [1, 7]: 96.76±2.66 μeq ml^−1
- Total urine output ([1]; cumulative urine of 5-hour protocol, nalfurafine 150 μg kg−1, furosemide 50 mg kg−1, HCTZ 5 mg kg−1, amiloride 5 mg kg−1, n=6): 18.28 ± 0.67 mL
- Day of peak diuresis ([2]; once daily IP for 10 days): 2 days
- 24-hour urine output on day 10 ([2]; once daily IP, furosemide 10 mg/kg alone or with difelikefalin 20 μg/kg, day 10): 5.57 ± 0.63 mL
- 24-hour urine output at peak diuresis ([2]; once daily IP, furosemide 10 mg/kg alone or with difelikefalin 20 μg/kg, mean±SEM): 14.98 ± 1.85 mL
- 5-hour urine output at peak diuresis ([3]; furosemide (20 mg/kg per method) orally twice per day, day 1): 13.97 ± 0.64 mL
- 5-hour urine output on day 6 ([3]; furosemide alone orally twice per day, day 6): 5.61 ± 1.14 mL
- Day of peak diuresis ([3]; furosemide alone, oral): 1 days
- 5-hour urine output on day 12 ([4]; furosemide 10 mg/kg IP once daily alone, day 12): 4.43 ± 0.54 mL
- 5-hour urine output at peak diuresis ([4]; furosemide 10 mg/kg IP once daily, day 1): 9.86 ± 0.76 mL
- Day of peak diuresis ([4]; furosemide alone): 1 days
- Day of peak diuresis ([5]; twice daily IP for 4 days): 1 days
- 5-hour urine output on day 4 ([5]; twice daily IP, furosemide 20 mg/kg alone or with nalfurafine 10 μg/kg, day 4): 7.41 ± 1.40 mL
- 5-hour urine output at peak diuresis ([5]; twice daily IP, furosemide 20 mg/kg alone or with nalfurafine 10 μg/kg, mean±SEM): 13.99 ± 0.72 mL
- Duration of the increase in urine flow rate above control ([6]; after i.v. bolus): 30 min
- Time of peak diuresis (urine flow rate) ([6]; after i.v. bolus): 10 min
- Effect on heart rate (HR) ([6]; i.v. bolus, 90-min protocol): did not produce any change in MAP or HR
- Effect on MAP ([6]; i.v. bolus, diuretic alone, 90-min protocol): did not produce any change in MAP or HR
- Potassium concentration [K+] in cumulative urine [6, 8]: 14.51±0.63 μeq ml^−1
- Sodium concentration [Na+] in cumulative urine [6, 8]: 138±1.58 μeq ml^−1
- Urine osmolality [6, 8]: 379.8 ± 15.33 mmol/kg
- Total urine output ([6]; i.v. bolus, cumulative urine of 90-min protocol, nalfurafine 5 μg kg−1, furosemide 7.5 mg kg−1, HCTZ 2.5 mg kg−1, amiloride 2 mg kg−1, mean±SEM, n=6): 9.20 ± 0.75 mL
